Activity calls are given as the source filed them. The rule behind the calls is not given here.

The subject of data set [1] is PC-12. Description: Cytoprotective activity against H2O2-induced oxidative injury in rat PC12 cells assessed as […] in cell viability at 10 uM pretreated for 24 hrs followed by 350 uM H2O2 challenge measured after 24 hrs by MTT assay. The data set is classed as functional, cell-based. (In general: Formazan colour is commonly taken as a measure of viable cells.)

For data set [2], the system named is PC-12. Description: Cytotoxicity against rat PC12 cells assessed as reduction in cell viability at 10 uM after 24 hrs by MTT assay. Particulars: pc-12, 24 h. In kind it is cell-based.
Data set [3] deals with PC-12. As to the kind of experiment: Cytoprotective activity against H2O2-induced oxidative injury in rat PC12 cells assessed as reduction in intracellular reactive oxygen species formation at 10 uM pretreated for 24 hrs followed by H2O2 challenge measured after 3 hrs by DCFH-DA dye based fluorescence microscopic analysis. In kind it is functional, cell-based.
For data set [4], the system named is PC-12. Description: Cytoprotective activity against H2O2-induced oxidative injury in rat PC12 cells assessed as […] in cell viability at 10 uM pretreated for 24 hrs followed by 500 uM H2O2 challenge measured after 24 hrs by MTT assay. The data set is classed as functional, cell-based.
In data set [5] the test system is PC-12. Description: Cytoprotective activity against H2O2-induced oxidative injury in rat PC12 cells assessed as increase in colony formation at 5 uM pretreated for 24 hrs followed by H2O2 challenge by crystal violet staining based assay. In kind it is functional, cell-based.
Data set [6] deals with PC-12. As to the kind of experiment: Cytoprotective activity against H2O2-induced oxidative injury in rat PC12 cells assessed as inhibition of MDA production at 10 uM pretreated for 24 hrs followed by H2O2 challenge measured after 16 hrs. The data set is classed as functional, cell-based.
For data set [7], the target named is T1, KEAP1/NRF2 (Rattus norvegicus) (UniProt O54968+P57790). As to the kind of experiment: Inhibition of Keap1/Nrf2 signaling in rat PC12 cells assessed as induction of ARE by measuring increase in HO-1 expression at 10 uM after 24 hrs by Western blot analysis. The data set is classed as cell-based.
Data set [8] has as its system PC-12. Description: Cytoprotective activity against H2O2-induced oxidative injury in rat PC12 cells harboring siRNA assessed as increase in colony formation at 2 uM pretreated for 24 hrs followed by H2O2 challenge by crystal violet staining based assay. The data set is classed as functional, cell-based.
The test system of data set [9] is PC-12. As to the kind of experiment: Cytoprotective activity against H2O2-induced oxidative injury in rat PC12 cells assessed as decrease in LDH release after 24 hrs. The data set is classed as functional, cell-based.
Data set [10] relates to PC-12. As to the kind of experiment: Cytoprotective activity against H2O2-induced oxidative injury in rat PC12 cells assessed as inhibition of MDA production pretreated for 24 hrs followed by H2O2 challenge measured after 16 hrs. The data set is classed as functional, cell-based.
Data set [11] concerns the target T1, KEAP1/NRF2 (Rattus norvegicus). As to the kind of experiment: Inhibition of Keap1/Nrf2 signaling in rat PC12 cells assessed as induction of nuclear translocation at 10 uM after 6 hrs by DAPI staining based fluorescence microscopic analysis. The data set is classed as cell-based.
Data set [12] relates to PC-12. As to the kind of experiment: Cytoprotective activity against H2O2-induced oxidative injury in rat PC12 cells harboring Nrf2 siRNA assessed as increase in colony formation at 2 uM pretreated for 24 hrs followed by H2O2 challenge by crystal violet staining based assay. In kind it is functional, cell-based.
The test system of data set [13] is PC-12. Description: Cytoprotective activity against H2O2-induced oxidative injury in rat PC12 cells harboring siRNA assessed as increase in cell viability at 10 uM pretreated for 24 hrs followed by H2O2 challenge measured after 24 hrs by MTT assay. In kind it is functional, cell-based.
In data set [14] the test system is PC-12. Description: Cytoprotective activity against H2O2-induced oxidative injury in rat PC12 cells harboring Nrf2 siRNA assessed as increase in cell viability at 10 uM pretreated for 24 hrs followed by H2O2 challenge measured after 24 hrs by MTT assay. In kind it is functional, cell-based.
The target in data set [15] is T1, KEAP1/NRF2 (Rattus norvegicus). Description: Inhibition of Keap1/Nrf2 signaling in rat PC12 cells assessed as induction of ARE by measuring increase in HO-1 expression after 24 hrs by Western blot analysis. The data set is classed as cell-based.
Data set [16] concerns PC-12. Description: Cytoprotective activity against H2O2-induced oxidative injury in rat PC12 cells assessed as reduction in intracellular reactive oxygen species formation pretreated for 24 hrs followed by H2O2 challenge measured after 3 hrs by DCFH-DA dye based fluorescence microscopic analysis. The data set is classed as functional, cell-based.
The test system of data set [17] is PC-12. Description: Cytoprotective activity against H2O2-induced oxidative injury in rat PC12 cells assessed as increase in colony formation at 1 to 2 uM pretreated for 24 hrs followed by H2O2 challenge by crystal violet staining based assay. In kind it is functional, cell-based.
Data set [18] deals with PC-12. Description: Cytoprotective activity against H2O2-induced oxidative injury in rat PC12 cells assessed as cell viability at 10 uM pretreated for 24 hrs followed by 350 uM H2O2 challenge measured after 24 hrs by MTT assay (reference value: 60%). In kind it is functional.

As to `CC(C)CCC[C@@H](C)[C@H]1CC[C@H]2[C@@H]3C(=O)C=C4C[C@@H](O)CC[C@]4(C)[C@H]3CC[C@]12C`, the outcome in the data set on PC-12 [1] was Active.
As to `C=C(CC[C@@H](C)[C@H]1CC[C@H]2[C@@H]3C(=O)[C@H]4O[C@]45C[C@@H](O)CC[C@]5(CO)[C@H]3CC[C@]12C)C(C)C`, the Activity entry in the data set with PC-12 [2] is listed as “Non-Toxic”. Moreover, in the data set with PC-12 [1], the outcome was inactive.
On to `CC(C)CCC[C@@H](C)[C@H]1CC[C@H]2[C@@H]3[C@H](O)CC4=CC(=O)CC[C@]4(C)[C@H]3CC[C@]12C`, for which, in the data set on PC-12 [1], the outcome was Active.
For the compound `CC(=O)O[C@H]1C=C2C[C@@H](O)CC[C@]2(CO)[C@H]2CC[C@]3(C)[C@@H]([C@H](C)CCCC(C)C)CC[C@H]3[C@H]12`, the Activity entry with PC-12 [2] was “Non-Toxic”. In addition, in the data set on PC-12 [1], the outcome was inactive.
In the case of `C=C(CC[C@@H](C)[C@H]1CC[C@@H]2[C@]1(C)C[C@H](O)[C@@H]1[C@@]3(C)C[C@H](O)[C@H](O)[C@@H](C)[C@@H]3CC(=O)[C@@]21O)C(C)C`, in the data set on PC-12 [2], the Activity entry is reported as “Non-Toxic”. Also, the result with PC-12 [1] was inactive.
On to `C=C(/C=C/[C@@H](C)[C@H]1CC[C@@H]2[C@]1(C)C[C@H](O)[C@@H]1[C@@]3(C)C[C@H](O)[C@H](OC(C)=O)[C@@H](C)[C@@H]3CC(=O)[C@@]21O)C(C)C`, for which, in the data set with PC-12 [2], the Activity result was “Non-Toxic”. In addition, in the data set on PC-12 [1], the outcome was inactive.
Take `CC(C)(C)c1cc(O)ccc1O`: the result with PC-12 [3], in the data set on PC-12 [4] and in the data set on PC-12 [5] was Active. In addition, the inhibition entry (in the data set with PC-12 [6]; in data set [7]) was “Active” throughout.
In the case of `C=C(CC[C@@H](C)[C@H]1CC[C@H]2[C@@H]3CC=C4C[C@@H](O)CC[C@]4(CO)[C@H]3CC[C@]12C)C(C)C`, the Activity entry in the data set with PC-12 [2] was “Non-Toxic”. Besides, the result with PC-12 [1] was inactive.
Consider `C=C(/C=C/[C@@H](C)[C@H]1CC[C@H]2[C@@H]3[C@@H](OC(C)=O)C=C4C[C@@H](O)CC[C@]4(CO)[C@H]3CC[C@]12C)C(C)C`, for which the Activity result with PC-12 [2] was “Non-Toxic”. Moreover, the result with PC-12 [1] was inactive.
Turning to `C=C(CC[C@@H](C)[C@H]1CC[C@H]2[C@@H]3C(=O)[C@H]4O[C@]45C[C@@H](O)CC[C@]5(COC(C)=O)[C@H]3[C@H](OC(C)=O)C[C@]12C)C(C)C`, in the data set on PC-12 [2], the Activity entry is given as “Non-Toxic”. In addition, the result with PC-12 [1] was inactive.
Regarding `C=C(CC[C@@H](C)[C@H]1CC[C@H]2[C@@H]3[C@@H](O)C=C4C[C@@H](O)CC[C@]4(C)[C@H]3CC[C@]12C)C(C)C`, in the data set with PC-12 [2], the Activity result is on record as “Non-Toxic”. The outcome in the data set on PC-12 [1] was inactive.
Turning to `C=C(/C=C/[C@@H](C)[C@H]1CC[C@@H]2[C@]1(C)C[C@H](O)[C@@H]1[C@@]3(C)C[C@H](O)[C@H](O)[C@@H](C)[C@@H]3CC(=O)[C@@]21O)C(C)C`, the Activity result in the data set on PC-12 [2] is on record as “Non-Toxic”. The result in the data set with PC-12 [1] was inactive.
As to `C=C(CC[C@@H](C)[C@H]1CC[C@H]2[C@@H]3C(=O)[C@H]4O[C@]45C[C@@H](O)CC[C@]5(COC(C)=O)[C@H]3CC[C@]12C)C(C)C`, the Activity entry in the data set with PC-12 [2] is listed as “Non-Toxic”. Besides, in the data set on PC-12 [1], the outcome was inactive.
Turning to `C=C(CC[C@@H](C)[C@H]1CC[C@H]2[C@@H]3C(=O)C=C4C[C@@H](O)CC[C@]4(COC(C)=O)[C@H]3CC[C@]12C)C(C)C`, the outcome in the data set on PC-12 [8], in the data set on PC-12 [4], in the data set on PC-12 [13] and in the data set on PC-12 [17] was Active. Further, the Activity result in the data set with PC-12 [9] is “Dose-dependent effect”; in the data set with PC-12 [2] it was “Non-Toxic”; in the data set with PC-12 [16], “Dose-dependent effect”; with PC-12 [18] it was 70%. In addition, the inhibition entry (in the data set with PC-12 [10]; in data set [15]) was “Dose-dependent effect” each time. Besides, the inhibition result in data set [11] was “Active”. For the same compound, the result in the data set with PC-12 [12] and in the data set on PC-12 [14] was inactive.
On to `CC(=O)O[C@H]1C=C2C[C@@H](O)CC[C@]2(CO)[C@H]2CC[C@]3(C)[C@@H]([C@H](C)/C=C/CC(C)C)CC[C@H]3[C@H]12`, for which the Activity entry in the data set on PC-12 [2] is on record as “Non-Toxic”. For the same compound, the outcome in the data set on PC-12 [1] was inactive.
For the compound `C=C(/C=C/[C@@H](C)[C@H]1CC[C@H]2[C@@H]3C(=O)[C@H]4O[C@]45C[C@@H](O)CC[C@]5(COC(C)=O)[C@H]3CC[C@]12C)C(C)C`, the Activity entry with PC-12 [2] is reported as “Non-Toxic”. Also, the result with PC-12 [1] was inactive.
Regarding `C=C(CC[C@@H](C)[C@H]1CC[C@H]2[C@@H]3[C@H](O)C=C4C[C@@H](O)CC[C@]4(COC(C)=O)[C@H]3CC[C@]12C)C(C)C`, the outcome in the data set with PC-12 [4] was inactive. Besides, the figures for the Activity entry in the data set on PC-12 [2] and in the data set on PC-12 [18] were “Non-Toxic” and 70%, respectively.
As to `C=C(CC[C@@H](C)[C@H]1CC[C@H]2[C@@H]3[C@@H](OC(C)=O)C=C4C[C@@H](O)CC[C@]4(CO)[C@H]3CC[C@]12C)C(C)C`, in the data set on PC-12 [2], the Activity entry is given as “Non-Toxic”. Moreover, the outcome in the data set with PC-12 [1] was inactive.
